Test results from ChEMBL document CHEMBL5046281, “N-Aryl Mercaptopropionamides as Broad-Spectrum Inhibitors of Metallo-β-Lactamases” (J Med Chem, 2022).
Calls of active or inactive are those of the source. No cut-off for these calls is given here.

What was measured:
Escherichia coli [1] = test: Potentiation of imipenem-induced antibacterial activity against NDM-1 producing Escherichia coli assessed as fold change in imipenem MIC at 2 ug/ml by microdilution method; type: functional; settings: dose 2 µg/ml
Escherichia coli [2] = test: Potentiation of imipenem-induced antibacterial activity against NDM-1 producing Escherichia coli assessed as imipenem MIC at 4 ug/ml by microdilution method (reference value: 128 ug/ml); type: functional; settings: dose 4 µg/ml
Escherichia coli [3] = test: Potentiation of imipenem-induced antibacterial activity against NDM-1 producing Escherichia coli assessed as fold change in imipenem MIC at 128 ug/ml by microdilution method; type: functional; settings: dose 128 µg/ml
[4] = target: T1, Matrix metalloproteinase-14 (Homo sapiens, UniProt P50281); test: Inhibition of human MMP-14
Escherichia coli [5] = test: Potentiation of imipenem-induced antibacterial activity against NDM-1 producing Escherichia coli assessed as fold change in imipenem MIC at 16 ug/ml by microdilution method; type: functional; settings: dose 16 µg/ml
[6] = Inhibition of Escherichia coli IMP-7 using fluorocillin as substrate incubated for 30 mins by fluorescence based assay
BlaVIM-1 = BlaVIM-1 (Escherichia coli, UniProt Q8GDC1); test: Inhibition of Escherichia coli VIM-1 using fluorocillin as substrate incubated for 30 mins by fluorescence based assay
Escherichia coli [7] = test: Potentiation of imipenem-induced antibacterial activity against NDM-1 producing Escherichia coli assessed as fold change in imipenem MIC at 32 ug/ml by microdilution method; type: functional; settings: dose 32 µg/ml
Serratia marcescens = test: Potentiation of imipenem-induced antibacterial activity against NDM-1 producing Serratia marcescens T2352 clinical isolates assessed as imipenem MIC at 128 mg/l by microdilution method; type: functional
[8] = (§1) Selectivity ratio of MIC for antibacterial activity against NDM-7 producing Escherichia coli T2239 clinical isolates to MIC for potentiation of imipenem-induced antibacterial activity against NDM-7 producing Escherichia coli T2239 clinical isolates assessed as imipenem MIC at 128 mg/l; type: functional
Escherichia coli [9] = test: Potentiation of imipenem-induced antibacterial activity against NDM-1 producing Escherichia coli assessed as imipenem MIC at 64 ug/ml by microdilution method (reference value: 128 ug/ml); type: functional; settings: dose 64 µg/ml
[10] = Selectivity ratio of MIC for antibacterial activity against NDM-1 producing Enterobacter cloacae T2311 clinical isolates to MIC for potentiation of imipenem-induced antibacterial activity against NDM-1 producing Enterobacter cloacae T2311 clinical isolates assessed as imipenem MIC at 128 mg/l; type: functional
[11] = Lipophilicity, log D of the compound at pH 7.4 by HPLC-MS analysis; type: physicochemical; settings: buffer
Enterobacter cloacae [12] = test: Potentiation of imipenem-induced antibacterial activity against VIM-1 producing Enterobacter cloacae T2353 clinical isolates assessed as imipenem MIC at 128 mg/l by microdilution method; type: functional
Klebsiella pneumoniae [13] = test: Antibacterial activity against imipenem-resistant NDM-1-producing Klebsiella pneumoniae T2301 infected in Galleria mellonella larvae assessed as survival rate at 38.4 ug injected via proleg measured after 1 day by Kaplan-Meier method; type: functional; settings: dose 38.4 µg
Pseudomonas aeruginosa = test: Antibacterial activity against VIM-2 expressing Pseudomonas aeruginosa isolates assessed as inhibition of bacterial growth by microdilution method; type: functional, organism-based
Escherichia coli [14] = test: Potentiation of imipenem-induced antibacterial activity against NDM-5 producing Escherichia coli T2351 clinical isolates assessed as imipenem MIC at 128 mg/l by microdilution method; type: functional
[15] = target: T1, Matrix metalloproteinase-14; test: Inhibition of human MMP-14 at 100 uM relative to control
Enterobacter cloacae [16] = test: Potentiation of imipenem-induced antibacterial activity against GIM-1 producing Enterobacter cloacae T2218 clinical isolates assessed as imipenem MIC at 128 mg/l by microdilution method; type: functional
[17] = target: Neutrophil collagenase (Homo sapiens) (UniProt P22894); test: Inhibition of human MMP-8 at 100 uM relative to control
[18] = Selectivity ratio of MIC for antibacterial activity against KPC-2 producing Escherichia coli T2435 clinical isolates to MIC for potentiation of imipenem-induced antibacterial activity against KPC-2 producing Escherichia coli T2435 clinical isolates assessed as imipenem MIC at 128 mg/l; type: functional
HEK293 = test: Cytotoxicity against human HEK293 cells assessed as reduction in cell viability at 100 uM relative to control; type: toxicity, cell-based; settings: hek293, 100 µM
[19] = Selectivity ratio of MIC for antibacterial activity against IMP-1 producing Pseudomonas aeruginosa T2325 clinical isolates to MIC for potentiation of imipenem-induced antibacterial activity against IMP-1 producing Pseudomonas aeruginosa T2325 clinical isolates assessed as imipenem MIC at 128 mg/l; type: functional
[20] = Selectivity ratio of MIC for antibacterial activity against NDM-5 producing Escherichia coli T2351 clinical isolates to MIC for potentiation of imipenem-induced antibacterial activity against NDM-5 producing Escherichia coli T2351 clinical isolates assessed as imipenem MIC at 128 mg/l; type: functional
Escherichia coli [21] = test: Potentiation of imipenem-induced antibacterial activity against KPC-2 producing Escherichia coli T2435 clinical isolates assessed as imipenem MIC at 128 mg/l by microdilution method; type: functional
[22] = as §1, with “OXA-23” for “NDM-7”, “Acinetobacter baumannii T2434” for “Escherichia coli T2239”; type: functional
HepG2 = test: Cytotoxicity against human HepG2 cells assessed as reduction in cell viability at 100 uM relative to control; type: toxicity, cell-based; settings: hepg2, 100 µM
Klebsiella pneumoniae [23] = test: Selectivity ratio of MIC for antibacterial activity against NDM-1 producing Klebsiella pneumoniae T2301 clinical isolates to MIC for potentiation of imipenem-induced antibacterial activity against NDM-1 producing Klebsiella pneumoniae T2301 clinical isolates assessed as imipenem MIC at 128 mg/l
[24] = target: T2, Matrilysin (Homo sapiens) (UniProt P09237); test: Inhibition of human MMP-7 at 100 uM relative to control
T2 sequence (whole entry): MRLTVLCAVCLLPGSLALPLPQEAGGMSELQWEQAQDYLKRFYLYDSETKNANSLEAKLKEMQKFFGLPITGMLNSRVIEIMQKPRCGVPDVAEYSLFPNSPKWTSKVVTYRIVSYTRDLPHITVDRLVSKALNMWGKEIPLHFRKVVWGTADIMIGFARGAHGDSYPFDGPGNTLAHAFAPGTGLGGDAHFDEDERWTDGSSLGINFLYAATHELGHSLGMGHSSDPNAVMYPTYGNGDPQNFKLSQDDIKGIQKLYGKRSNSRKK

Escherichia coli [25] = test: Potentiation of imipenem-induced antibacterial activity against NDM-1 producing Escherichia coli assessed as imipenem MIC at 2 ug/ml by microdilution method (reference value: 128 ug/ml); type: functional; settings: dose 2 µg/ml

Sequence of Neutrophil collagenase (Homo sapiens) (P22894 101-467 limits assumed): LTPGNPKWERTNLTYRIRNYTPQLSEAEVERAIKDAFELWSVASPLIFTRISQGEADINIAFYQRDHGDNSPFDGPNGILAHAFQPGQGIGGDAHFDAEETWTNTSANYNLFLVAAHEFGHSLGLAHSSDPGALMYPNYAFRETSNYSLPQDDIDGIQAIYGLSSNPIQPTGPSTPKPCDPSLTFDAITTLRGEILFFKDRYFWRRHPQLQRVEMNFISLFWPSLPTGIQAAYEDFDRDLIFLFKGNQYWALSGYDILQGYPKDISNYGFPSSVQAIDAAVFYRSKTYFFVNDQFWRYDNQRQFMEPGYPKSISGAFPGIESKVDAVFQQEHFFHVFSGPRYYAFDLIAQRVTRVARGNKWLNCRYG

O=C(CCS)Nc1cccc(C(=O)O)c1
fold change (FC) (Escherichia coli [1]): 1
MIC (Escherichia coli [2]): 128 µg/mL
fold change (FC) (Escherichia coli [3]): 256
IC50 [4]: 68 µM
fold change (FC) (Escherichia coli [5]): 2
IC50 [6]: 6.4 µM
IC50 (BlaVIM-1): 1.2 µM
fold change (FC) (Escherichia coli [7]): 16
MIC (Serratia marcescens): 4 µg/mL
Ratio [8]: 16
MIC (Escherichia coli [9]): 2 µg/mL
Ratio [10]: 8
logD [11]: -0.96
MIC (Enterobacter cloacae [12]): 2 µg/mL
Activity (Klebsiella pneumoniae [13]): <20%
Activity (Pseudomonas aeruginosa): inactive
MIC (Escherichia coli [14]): 2 µg/mL
inhibition [15]: 61%
MIC (Enterobacter cloacae [16]): 2 µg/mL
inhibition [17]: < 10%
Ratio [18]: 1
Activity (HEK293): < 10%
Ratio [19]: 1
Ratio [20]: 4
MIC (Escherichia coli [21]): 4 µg/mL
Ratio [22]: 1
Activity (HepG2): < 10%
Ratio (Klebsiella pneumoniae [23]): 32
inhibition [24]: < 10%
MIC (Escherichia coli [25]): 128 µg/mL
